Source: patent US20050137130A1, “Medical treatment” (priority 2001, published 2005)

Test system: Notch signalling in CHO-N2 (N27#11) cells expressing full length human Notch2
Experiment: CHO-N2 (N27) luciferase reporter assay, CHO-Delta antagonist assay
Type: cell-based
Conditions: soluble protein, N27#11 reporter cells co-cultured with CHO-Delta cells overnight
Excerpt: An adenovirus major late promoter TATA-box motif with BglII and HindIII cohesive ends was generated as follows:
This was cloned into plasmid pGL3-Basic (Promega) between the BgiII and HindIII sites to generate plasmid pGL3-AdTATA.
A TP1 promoter sequence (TP1; equivalent to 2 CBF1 repeats) with BamH1 and BglII cohesive ends was generated as follows:
This sequence was pentamerised by repeated insertion into a BglII site and the resulting TP1 pentamer (equivalent to 10 CBF1 repeats) was inserted into pGL3-AdTATA at the BglII site to generate plasmid pLOR91.
A cDNA clone spanning the complete coding sequence of the human Notch2 gene (see, eg GenBank Accession No AF315356) was constructed as follows. A 3′ cDNA fragment encoding the entire intracellular domain and a portion of the extracellular domain was isolated from a human placental cDNA library (OriGene Technologies Ltd., USA) using a PCR-based screening strategy. […]
CHO-Delta cells (as described above) were maintained in DMEM plus 10% (HI)FCS plus glutamine plus P/S plus 0.5 mg/ml G418. Just prior to use the cells were removed from a T80 flask using 0.02% EDTA solution (Sigma), spun down and resuspended in 10 ml DMEM plus 10%(HI)FCS plus glutamine plus P/S. 10 μl of cells were counted and the cell density was adjusted to 5.0×10^5 cells/ml with fresh DMEM plus 10%(HI)FCS plus glutamine plus P/S. […]

hDelta1-IgG4Fc: fusion protein comprising the extracellular domain of human Delta1 fused to the Fc domain of human IgG4 (SEQ ID NO: 5)
inhibition of Notch signalling from CHO-Delta cells: inhibition of Notch signalling

hJagged1EGF1&2-IgG4Fc: human jagged1 sequence up to the end of EGF2 (leader, amino terminal, DSL, EGF1+2) fused to the Fc domain of human IgG4 (SEQ ID NO: 10)
inhibition of Notch signalling from CHO-Delta cells: substantially the same inhibition of Notch signalling
